Source: patent US12568972B2, “Pyridazinol compounds and derivatives, preparation methods, herbicidal compositions and applications thereof” (Qingdao Kingagroot Chemical Compound Co., Ltd., priority 2018, dated 2026)

Assays:
Test in all cases: Post-emergence test, weed control effect
Format in all cases: in vivo
Conditions in all cases: after 3 weeks
Veronica polita = tested on: Veronica polita
Outline: (§1)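 Weeds sown in soil-filled pots and sprayed at 2-3 leaf stage (2-3 weeks after sowing) with compound in acetone/Tween-80/water plus 80% vegetable oil methyl ester synergist at 1500 g/ha. After 3 weeks in the greenhouse, fresh-weight growth inhibition scored on a 0-10 scale (10 = completely dead).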

Chenopodiaceae = tested on: Chenopodiaceae
Outline: as §1

Rorippa indica = tested on: Rorippa indica
Outline: as §1

Amaranthus retroflexus = tested on: Amaranthus retroflexus
Outline: as §1

COc1cccc(-c2nnc(C(F)(F)F)cc2O)c1F [Compound 68]
10: weed control effect (activity level), Veronica polita (Veronica polita; dose 1000 g/ha) | weed control effect (activity level), Chenopodiaceae (Chenopodiaceae; dose 1000 g/ha) | weed control effect (activity level), Rorippa indica (Rorippa indica; dose 1000 g/ha) | weed control effect (activity level), Amaranthus retroflexus (Amaranthus retroflexus; dose 1000 g/ha)

Oc1cc(C(F)(F)F)nnc1-c1ccc(F)cc1F [Compound 732]
10: weed control effect (activity level), Veronica polita (Veronica polita; dose 1000 g/ha) | weed control effect (activity level), Chenopodiaceae (Chenopodiaceae; dose 1000 g/ha) | weed control effect (activity level), Rorippa indica (Rorippa indica; dose 1000 g/ha) | weed control effect (activity level), Amaranthus retroflexus (Amaranthus retroflexus; dose 1000 g/ha)

COc1ccc(-c2nnc(C(F)(F)F)cc2O)cc1 [Compound 93]
10: weed control effect (activity level), Veronica polita (Veronica polita; dose 1000 g/ha) | weed control effect (activity level), Chenopodiaceae (Chenopodiaceae; dose 1000 g/ha) | weed control effect (activity level), Rorippa indica (Rorippa indica; dose 1000 g/ha) | weed control effect (activity level), Amaranthus retroflexus (Amaranthus retroflexus; dose 1000 g/ha)

Oc1cc(C(F)(F)F)nnc1-c1ccccc1Br [Compound 772]
10: weed control effect (activity level), Veronica polita (Veronica polita; Dose 3000 g/ha) | weed control effect (activity level), Chenopodiaceae (Chenopodiaceae; Dose 3000 g/ha) | weed control effect (activity level), Rorippa indica (Rorippa indica; Dose 3000 g/ha) | weed control effect (activity level), Amaranthus retroflexus (Amaranthus retroflexus; Dose 3000 g/ha)

O=S(=O)(Oc1cc(C(F)(F)F)nnc1-c1ccc(F)c(F)c1)c1ccc(C(F)(F)F)cc1 [Compound 1-129]
10: weed control effect, Veronica polita (activity level) (Veronica polita; Dose 3000 g/ha) | weed control effect, Chenopodiaceae (activity level) (Chenopodiaceae; Dose 3000 g/ha) | weed control effect, Rorippa indica (activity level) (Rorippa indica; Dose 3000 g/ha) | weed control effect, Amaranthus retroflexus (activity level) (Amaranthus retroflexus; Dose 3000 g/ha)

CCCCCCOC(=S)Oc1cc(C(F)(F)F)nnc1-c1ccc(Cl)c(Cl)c1Cl [Compound 1-160]
10: weed control effect, Veronica polita (activity level) (Veronica polita; Dose 3000 g/ha) | weed control effect, Chenopodiaceae (activity level) (Chenopodiaceae; Dose 3000 g/ha) | weed control effect, Rorippa indica (activity level) (Rorippa indica; Dose 3000 g/ha) | weed control effect, Amaranthus retroflexus (activity level) (Amaranthus retroflexus; Dose 3000 g/ha)

COP(=O)(OC)Oc1cc(C(F)(F)F)nnc1-c1ccc(F)c(Cl)c1 [Compound 1-167]
10: weed control effect, Veronica polita (activity level) (Veronica polita; Dose 3000 g/ha) | weed control effect, Chenopodiaceae (activity level) (Chenopodiaceae; Dose 3000 g/ha) | weed control effect, Rorippa indica (activity level) (Rorippa indica; Dose 3000 g/ha) | weed control effect, Amaranthus retroflexus (activity level) (Amaranthus retroflexus; Dose 3000 g/ha)

Cn1nc(C2CC2)cc1-c1nnc(C(F)(F)F)cc1O [Compound 781]
10: weed control effect (activity level), Veronica polita (Veronica polita; Dose 3000 g/ha) | weed control effect (activity level), Chenopodiaceae (Chenopodiaceae; Dose 3000 g/ha) | weed control effect (activity level), Rorippa indica (Rorippa indica; Dose 3000 g/ha) | weed control effect (activity level), Amaranthus retroflexus (Amaranthus retroflexus; Dose 3000 g/ha)

Oc1cc(C(F)(F)F)nnc1-c1ccc(Cl)nc1F [Compound 997]
10: weed control effect (activity level), Veronica polita (Veronica polita; Dose 3000 g/ha) | weed control effect (activity level), Chenopodiaceae (Chenopodiaceae; Dose 3000 g/ha) | weed control effect (activity level), Rorippa indica (Rorippa indica; Dose 3000 g/ha) | weed control effect (activity level), Amaranthus retroflexus (Amaranthus retroflexus; Dose 3000 g/ha)

Cc1ccc(-c2nnc(C(F)(F)F)cc2O)o1 [Compound 414]
10: weed control effect (activity level), Veronica polita (Veronica polita; Dose 3000 g/ha) | weed control effect (activity level), Chenopodiaceae (Chenopodiaceae; Dose 3000 g/ha) | weed control effect (activity level), Rorippa indica (Rorippa indica; Dose 3000 g/ha) | weed control effect (activity level), Amaranthus retroflexus (Amaranthus retroflexus; Dose 3000 g/ha)

Cn1ncc(C2CC2)c1-c1nnc(C(F)(F)F)cc1O [Compound 810]
10: weed control effect (activity level), Veronica polita (Veronica polita; Dose 3000 g/ha) | weed control effect (activity level), Chenopodiaceae (Chenopodiaceae; Dose 3000 g/ha) | weed control effect (activity level), Rorippa indica (Rorippa indica; Dose 3000 g/ha) | weed control effect (activity level), Amaranthus retroflexus (Amaranthus retroflexus; Dose 3000 g/ha)

O=C(Oc1cc(C(F)(F)F)nnc1-c1ccc(C(F)(F)F)cc1)c1cccs1 [Compound 1-106]
10: weed control effect, Veronica polita (activity level) (Veronica polita; Dose 3000 g/ha) | weed control effect, Chenopodiaceae (activity level) (Chenopodiaceae; Dose 3000 g/ha) | weed control effect, Rorippa indica (activity level) (Rorippa indica; Dose 3000 g/ha) | weed control effect, Amaranthus retroflexus (activity level) (Amaranthus retroflexus; Dose 3000 g/ha)

Oc1cc(C(F)(F)F)nnc1-c1ccc(Cl)cc1C(F)(F)F [Compound 763]
10: weed control effect (activity level), Veronica polita (Veronica polita; Dose 3000 g/ha) | weed control effect (activity level), Chenopodiaceae (Chenopodiaceae; Dose 3000 g/ha) | weed control effect (activity level), Rorippa indica (Rorippa indica; Dose 3000 g/ha) | weed control effect (activity level), Amaranthus retroflexus (Amaranthus retroflexus; Dose 3000 g/ha)

O=S(=O)(Oc1cc(C(F)(F)F)nnc1-c1ccc(C(F)(F)F)cc1)C1CC1 [Compound 1-122]
10: weed control effect, Veronica polita (activity level) (Veronica polita; Dose 3000 g/ha) | weed control effect, Chenopodiaceae (activity level) (Chenopodiaceae; Dose 3000 g/ha) | weed control effect, Rorippa indica (activity level) (Rorippa indica; Dose 3000 g/ha) | weed control effect, Amaranthus retroflexus (activity level) (Amaranthus retroflexus; Dose 3000 g/ha)

Cn1nc(F)cc1-c1nnc(C(F)(F)F)cc1O [Compound 775]
10: weed control effect (activity level), Veronica polita (Veronica polita; Dose 3000 g/ha) | weed control effect (activity level), Chenopodiaceae (Chenopodiaceae; Dose 3000 g/ha) | weed control effect (activity level), Rorippa indica (Rorippa indica; Dose 3000 g/ha) | weed control effect (activity level), Amaranthus retroflexus (Amaranthus retroflexus; Dose 3000 g/ha)

Oc1cc(C(F)(F)F)nnc1-c1cnc(F)cc1F [Compound 989]
10: weed control effect (activity level), Veronica polita (Veronica polita; Dose 3000 g/ha) | weed control effect (activity level), Chenopodiaceae (Chenopodiaceae; Dose 3000 g/ha) | weed control effect (activity level), Rorippa indica (Rorippa indica; Dose 3000 g/ha) | weed control effect (activity level), Amaranthus retroflexus (Amaranthus retroflexus; Dose 3000 g/ha)

Cc1cccc(C2CC2)c1-c1nnc(C(F)(F)F)cc1O [Compound 735]
10: weed control effect (activity level), Veronica polita (Veronica polita; dose 1000 g/ha) | weed control effect (activity level), Chenopodiaceae (Chenopodiaceae; dose 1000 g/ha) | weed control effect (activity level), Rorippa indica (Rorippa indica; dose 1000 g/ha) | weed control effect (activity level), Amaranthus retroflexus (Amaranthus retroflexus; dose 1000 g/ha)

Oc1cc(C(F)(F)F)nnc1-c1ccc2cccnc2c1 [Compound 723]
10: weed control effect (activity level), Veronica polita (Veronica polita; Dose 3000 g/ha) | weed control effect (activity level), Chenopodiaceae (Chenopodiaceae; Dose 3000 g/ha) | weed control effect (activity level), Rorippa indica (Rorippa indica; Dose 3000 g/ha) | weed control effect (activity level), Amaranthus retroflexus (Amaranthus retroflexus; Dose 3000 g/ha)
